The values below come from patent US11065286B2 (priority 2016, dated 2021).

One experiment has as its system MDA-MB-231 cells. It counts as cell-based.
The test system of experiment [1] is Renca, MC38, and 4T1 cell lines. Type of experiment: cell-based, mouse.

As for `C/C=C/C/C=C/CCC(=O)[C@H]1O[C@H]1C(N)=O` [cerulenin], in the experiment with MDA-MB-231 cells, the vaccinia replication result is listed as “significantly reduced vaccinia replication”.

As to Bafilomycin A1, the “viral gene expression with HMGB1mut expression in presence of inhibitor” value in experiment [1] is “loss of the increased viral gene expression”.
